Experimental data published in publication PMC11470957, “Principles of paralog-specific targeted protein degradation engaging the C-degron E3 KLHDC2” (Nature Communications, 2024).
Several values for one entry are separate records, joined by “and”; a condition that tells them apart may be missing. Identical values can stand only once.

Assays:
KLHDC2^SBD [1] = target: T1, KLHDC2^SBD (Homo sapiens, UniProt Q9Y2U9); assay: Thermal shift assay (Sypro Orange) probing stabilization of KLHDC2^SBD; type: binding; parameters: KLHDC2^SBD (15-361) and its Avi-tagged counterpart were expressed in E. coli Rosetta2 cells; 6XHis-MBP (N, cleaved yes); made in house; host or cells: E. coli Rosetta2; conditions: for ΔTm at 50 µM: read-out: ΔTm at 50 µM; for Thermal shift ΔTm: KLHDC2^SBD, ligand concentration not given
T1 sequence (Q9Y2U9 15-361): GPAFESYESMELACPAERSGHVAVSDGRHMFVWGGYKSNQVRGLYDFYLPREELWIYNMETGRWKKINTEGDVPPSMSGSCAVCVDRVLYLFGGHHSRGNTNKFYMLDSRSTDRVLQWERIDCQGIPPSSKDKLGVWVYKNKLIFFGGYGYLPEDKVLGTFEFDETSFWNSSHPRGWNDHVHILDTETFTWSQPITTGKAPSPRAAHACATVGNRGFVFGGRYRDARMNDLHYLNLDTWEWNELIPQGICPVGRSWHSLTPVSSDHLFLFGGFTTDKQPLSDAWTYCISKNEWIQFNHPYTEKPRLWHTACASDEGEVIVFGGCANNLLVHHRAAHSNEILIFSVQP
Protocol: In an attempt to identify non-peptide ligands that target KLHDC2’s substrate binding domain (SBD), we developed a thermal shift assay probing for stabilization of KLHDC2^SBD upon ligand addition. […] We utilized the thermal shift assay to screen ~ 9,000 molecules from a diverse collection of lead-like molecules (Figs. 1b, S1a, Supplementary Table 1).
Experimental compounds (200 nl each) were dispensed into a 384-well PCR plate using the Labcyte ECHO 655 T. The assay solution, comprising 0.5 μM KLHDC2, 25 mM HEPES, 200 mM NaCl, and 5% Sypro Orange at pH 7.5, was added to achieve a final volume of 20 μl. Negative control wells contained only DMSO, while positive control wells contained a di-Gly substrate peptide derived from SELK. Fluorescence measurements of Sypro Orange in each sample were taken using a Quantstudio 5 or Quantstudio 6, with temperatures ranging from 23 to 75 °C at a rate of 0.05 °C/s. Data analysis involved calculating thermal stability using the Boltzmann and first derivative minima equations in Thermo Scientific Protein Thermal Shift software v1.4. The resulting data were uploaded to CDD Vault for further analysis.
The 8892-compound lead-like one library was screened for its ability to stabilize KLHDC2 using a sypro orange-based thermal stability single-point assay.
Supplementary Ta b l e 1. Small molecule screening data
Category Parameter Description
Assay Ty p e o f assay Thermal Stability Screen
Primary measurement RFU of Sypro Orange
Key reagents Sypro Orange
Assay protocol Experimental compounds (200nl each) were dispensed into […]
a 384-well PCR plate using the Labcyte ECHO 655T. The […]
assay solution, comprising 0.5µM KLHDC2, 25mM HEPES,
200mM NaCl, and 5% Sypro Orange at pH 7.5, was added […]
to achieve a final volume of 20μl. Negative control wells […]
contained only DMSO, while positive control wells […]
contained peptide sub2. Fluorescence measurements of
Sypro Orange in each sample were taken using a
Quantstudio 5 or Quantstudio 6, with temperatures ranging […]
from 23 to 75°C at a rate of 0.05°C/second. Data analysis […]
involved calculating thermal stability using the Boltzmann […]
and first derivative minima equations in Thermo Scientific
Protein Thermal Shift software v1.4. The resulting data […]
were uploaded to CDD Vault for further analysis.
Library Library size 10041
Library composition The library was curated from compounds cherry picked […]
from St. Jude’s collection, representative of 80% of the […]
entire collection based on scaffold diversity (2D Molecular […]
fingerprinting based clustering) and structural properties: […]
lipophilicity (cLogP<3), size (MW 200-300 Da), and no […]
structural alerts (PAINS).
Source The compound collection was curated from multiple […]
vendors and stored on-site.
Screen Format The assay was completed in 26 384 well plates
Concentration(s) tested Compounds were tested at 100µM, and then a 16-point […]
serial dilution was performed on select compounds.
Plate controls DMSO as negative control and peptide sub2 as positive […]
Reagent/ compound dispensing system Multidrop Combi and Labcyte ECHO 655T […]
Detection instrument and software Quant Studio 5 and Quant Studio 6 and Thermo Scientific […]
Protein Thermal Shift software v1.4
Correction factors No correction factors were applied.

KLHDC2^SBD [2] = target: T1, KLHDC2^SBD; assay: TR-FRET assay, competition with di-Gly degron peptide binding to KLHDC2^SBD; parameters: KLHDC2^SBD (15-361) and its Avi-tagged counterpart were expressed in E. coli Rosetta2 cells; 6XHis-MBP (N, cleaved yes); made in house; host or cells: E. coli Rosetta2; conditions: for IC50: inhibition of KLHDC2^SBD binding to a di-Gly degron peptide, read-out: TR-FRET IC50
Protocol: TR-FRET assays were carried out in black 384-well microtiter plates at a final volume of 20 μL per well. An assay cocktail was prepared as a mixture of 50 nM Biotin-KLHDC2 SBD, 20 nM AlexaFluor488-RIC8B peptide, 2.5 nM Tb-Streptavidin (ThermoFisher) in assay buffer (25 mM HEPES, 100 mM NaCl, 0.1% Triton X-100, 0.5 mM DTT, pH 7.5). The assay cocktail was incubated for thirty-minutes at room temperature and 20 μl distributed to assay plates. Molecules were distributed to the plates at the indicated concentration and the assay mixture was incubated for 1 h at room temperature prior to measuring the TR-FRET signal with a PHERAstar FS plate reader (BMG Labtech) equipped with modules for excitation at 337 nm and emissions at 490 and 520 nm. The integration start was set to 100 µs and the integration time to 200 µs. The number of flashes was fixed at 100. The ratio of 520/490 was used as TR-FRET signal in calculations. Assay endpoints were normalized to 100% (buffer only) and used for curve fitting in Prism.

KLHDC2^SBD [3] = target: T1, KLHDC2^SBD; assay: ITC, binary binding of small molecule to KLHDC2^SBD
[4] = ITC Kd, cell: ligand, syringe: KLHDC2^SBD
[5] = Kd, ITC, syringe KLHDC2, cell compound, Rep1, Rep2
[6] = cell: ligand, syringe: KLHDC2^SBD

Compound: O=C(O)CNC(=O)Cc1csc(-c2ccccc2F)n1 [SJ6145]
- ΔTm at 50 µM (KLHDC2^SBD [1]): 1.1 ± 0.03 °C
- % Inhibition, normalized TR-FRET dose response (KLHDC2^SBD [2]; Log Concentration (uM 2.8348)): 0%
- % Inhibition, normalized TR-FRET dose response (KLHDC2^SBD [2]; Log Concentration (uM 3.13583)): 5.022%
- % Inhibition, normalized TR-FRET dose response (KLHDC2^SBD [2]; Log Concentration (uM 4.64098)): 41.3917%
- % Inhibition, normalized TR-FRET dose response (KLHDC2^SBD [2]; Log Concentration (uM 4.94201)): 60.6887%
- % Inhibition, normalized TR-FRET dose response (KLHDC2^SBD [2]; Log Concentration (uM 5.24304)): 71.5686%
- % Inhibition, normalized TR-FRET dose response (KLHDC2^SBD [2]; Log Concentration (uM 5.54407)): 79.1487%
- IC50 (KLHDC2^SBD [2]): 42000 nM

Compound: COCOc1ccc(-c2nc(CC(=O)NCC(=O)O)cs2)c(Cl)c1 [SJ10278]
- ΔTm at 50 µM (KLHDC2^SBD [1]): 3.5 ± 0.3 °C
- % Inhibition, normalized TR-FRET dose response (KLHDC2^SBD [2]; Log Concentration 2, Rep1): 8.293%
- % Inhibition, normalized TR-FRET dose response (KLHDC2^SBD [2]; Log Concentration 2, Rep2): 0%
- % Inhibition, normalized TR-FRET dose response (KLHDC2^SBD [2]; Log Concentration 2, Rep3): 0%
- % Inhibition, normalized TR-FRET dose response (KLHDC2^SBD [2]; Log Concentration 3.39794, Rep1): 11.5657%
- % Inhibition, normalized TR-FRET dose response (KLHDC2^SBD [2]; Log Concentration 3.39794, Rep2): 0%
- % Inhibition, normalized TR-FRET dose response (KLHDC2^SBD [2]; Log Concentration 3.39794, Rep3): 5.531%
- % Inhibition, normalized TR-FRET dose response (KLHDC2^SBD [2]; Log Concentration 3.87506, Rep1): 26.5428%
- % Inhibition, normalized TR-FRET dose response (KLHDC2^SBD [2]; Log Concentration 3.87506, Rep2): 8.417%
- % Inhibition, normalized TR-FRET dose response (KLHDC2^SBD [2]; Log Concentration 3.87506, Rep3): 8.069%
- % Inhibition, normalized TR-FRET dose response (KLHDC2^SBD [2]; Log Concentration 4.35218, Rep1): 43.4059%
- % Inhibition, normalized TR-FRET dose response (KLHDC2^SBD [2]; Log Concentration 4.35218, Rep2): 37.2745%
- % Inhibition, normalized TR-FRET dose response (KLHDC2^SBD [2]; Log Concentration 4.35218, Rep3): 43.973%
- % Inhibition, normalized TR-FRET dose response (KLHDC2^SBD [2]; Log Concentration 4.81291, Rep1): 67.7021%
- % Inhibition, normalized TR-FRET dose response (KLHDC2^SBD [2]; Log Concentration 4.81291, Rep2): 64.6478%
- % Inhibition, normalized TR-FRET dose response (KLHDC2^SBD [2]; Log Concentration 4.81291, Rep3): 77.6282%
- IC50 (KLHDC2^SBD [2]): 24100 nM

Compound: O=C(O)CNC(=O)Cc1csc(-c2ccc3ccccc3c2)n1 [SJ46411]
- Thermal shift ΔTm (KLHDC2^SBD [1]): 6.0 °C
- % Inhibition, normalized TR-FRET dose response (KLHDC2^SBD [2]; Log Concentration 2.39794, Rep1-Rep3): 6.354% and 5.4752% and 4.71%
- % Inhibition, normalized TR-FRET dose response (KLHDC2^SBD [2]; Log Concentration 2.64098, Rep1-Rep3): 7.948% and 6.2789% and 8.198%
- % Inhibition, normalized TR-FRET dose response (KLHDC2^SBD [2]; Log Concentration 3.273, Rep1-Rep3): 31.9514% and 32.2878% and 31.935%
- % Inhibition, normalized TR-FRET dose response (KLHDC2^SBD [2]; Log Concentration 3.87506, Rep1-Rep3): 66.95% and 63.4771% and 63.8138%
- % Inhibition, normalized TR-FRET dose response (KLHDC2^SBD [2]; Log Concentration 4.39794, Rep1-Rep3): 94.0253% and 93.427% and 93.3896%
- % Inhibition, normalized TR-FRET dose response (KLHDC2^SBD [2]; Log Concentration 4.69897, Rep1-Rep3): 96.203% and 95.4411% and 96.0366%
- % Inhibition, normalized TR-FRET dose response (KLHDC2^SBD [2]; Log Concentration 4.94201, Rep1-Rep3): 96.4266% and 96.3416% and 96.2278%
- IC50 (KLHDC2^SBD [2]): 3900 nM
- Kd (KLHDC2^SBD [3]; [4]): ~260 nM and 220 nM
- Kd (KLHDC2^SBD [3]; [5]): 202 nM and 238 nM
- ITC -TΔS (KLHDC2^SBD [3]; [6]): -1.52 +/- 0.04 kcal/mol-1
- ITC stoichiometry of binding N (KLHDC2^SBD [3]; [6]): 0.9
- ITC ΔG (KLHDC2^SBD [3]; [6]): -8.81 +/- 0.07 kcal/mol-1
- ITC ΔH (KLHDC2^SBD [3]; [6]): -7.30 +/- 0.10 kcal/mol-1

Compound: COCCOc1cccc2ccc(-c3nc(CC(=O)NCC(=O)O)cs3)cc12 [SJ46418]
- Thermal shift ΔTm (KLHDC2^SBD [1]): 4.3 °C
- % Inhibition, normalized TR-FRET dose response (KLHDC2^SBD [2]; Log Concentration 2.39794): 13.1742% and 22.1732% and 17.7572%
- % Inhibition, normalized TR-FRET dose response (KLHDC2^SBD [2]; Log Concentration 2.64098): 24.253% and 29.1375% and 24.8323%
- % Inhibition, normalized TR-FRET dose response (KLHDC2^SBD [2]; Log Concentration 3.273): 57.5653% and 59.1955% and 57.0453%
- % Inhibition, normalized TR-FRET dose response (KLHDC2^SBD [2]; Log Concentration 3.87506): 85.4899% and 86.6902% and 84.0459%
- % Inhibition, normalized TR-FRET dose response (KLHDC2^SBD [2]; Log Concentration 4.39794): 85.0979% and 85.1063% and 81.8885%
- IC50 (KLHDC2^SBD [2]): 1100 nM
- Kd (KLHDC2^SBD [3]; ITC Kd, as printed in Fig 2d/3b): 210 nM
- Kd (KLHDC2^SBD [3]; [4]): 216 ± 17 nM
- Kd (KLHDC2^SBD [3]; [5]): 205 nM and 229 nM
- ITC -TΔS (KLHDC2^SBD [3]; [6]): -0.94 +/- 0.02 kcal/mol-1
- ITC stoichiometry of binding N (KLHDC2^SBD [3]; [6]): 0.9
- ITC ΔG (KLHDC2^SBD [3]; [6]): -8.82 +/- 0.04 kcal/mol-1
- ITC ΔH (KLHDC2^SBD [3]; [6]): -7.88 +/- 0.07 kcal/mol-1

Compound: Cc1sc2c(c1C)C(c1ccc(Cl)cc1)=N[C@@H](CC(=O)N1CCN(CCOc3cccc4ccc(-c5nc(CC(=O)NCC(=O)O)cs5)cc34)CC1)c1nnc(C)n1-2 [SJ46421]
- Kd (KLHDC2^SBD [3]; [4]): 304 ± 39 nM
- Kd (KLHDC2^SBD [3]; Kd, Rep1/Rep2, ITC source data Fig4a, syringe KLHDC2, cell PROTAC alone): 338 nM and 269 nM
- ITC -TΔS (KLHDC2^SBD [3]; [6]): -1.03 +/- 0.22 kcal/mol-1
- ITC stoichiometry of binding N (KLHDC2^SBD [3]; [6]): 0.8
- ITC ΔG (KLHDC2^SBD [3]; [6]): -9.1 +/- 0.02 kcal/mol-1
- ITC ΔH (KLHDC2^SBD [3]; [6]): -8.07 +/- 0.22 kcal/mol-1
